“Also recorded” adds a separate entry of the source.
Experiments:
[1] = test system: cancer cell lines A549, PC3, MDA-MB 231, HeLa, HepG2; assay: Anti-proliferative effect of stored versus fresh NBrT aqueous solutions; assay type: cell-based; settings: aqueous solution in double distilled water or PBS left for 15, 30 or 45 days at room temperature or 4° C.; all cancer cell lines tested
Procedure: During studies on NBrT anti-proliferative effect against cancer cells, aqueous solutions of NBrT in double distilled water or phosphate buffered saline where left for 15, 30 and 45 days in room temperature or at 4° C. The anti-proliferative effect of NBrT solutions was decreased by 30-40% each time a respective solution was tested that was left for 15, 30 or 45 days since time of production in comparison with the results of the anti-proliferative effect obtained from the same but fresh solution of NBrT, tested at the same day of production. The same results were noticed in all cancer cell lines tested (A549, PC3, MDA-MB 231, HeLa, and HepG2). The loss of anti-proliferative effect of the aqueous solutions of NBrT (15, 30, 45 days) was tightly connected with the loss of corresponding absorbance at 286 nm having as a reference that a solution of 10 mM NBrT has a peak at 430M^−1 cm^−1 at day of production.

[2] = test system: hyper-proliferating cell lines A549, PC3, HeLa, MDA-MB 231, HepG2; assay: Proliferation assays, statements for all cancer cell lines together; assay type: cell-based; settings: for enhancement of anti-proliferative effect against cancer cells as single parameter in NBrT solutions: surplus of taurine or later addition of NaOBr alone, NBrT 62.5-250 μM
Procedure: (§1) The same accounts by later addition of Taurine to a 200 mM concentration in a 40 mM NBrT solution to cause enhancement of anti-proliferative effect against cancer cells. The enhancement of anti-proliferative effect against cancer cells is achieved by the use of the surplus of taurine present in the solution that is thereafter reacting with a later addition of 40 μM NaOBr solution at 24, 48 and 72 hours of in vitro incubation of cancer cells. That is, with a 1% addition of 40 μM NaOBr solution in total volume of cell cultures at 24, 48 and 72 hours, i.e. 0.4 μM NaOBr, favorable circumstances for fresh NBrT synthesis are made in order to contribute to reaction against abnormally hyper-proliferative cells. […] Normally proliferating cell lines show an evident decrease in their proliferative ability when grown at concentrations of NBrT above 250 μM. It has to be noted that all cells tested are not affected in their proliferation rate when growing in the same medium containing 0.4-40 μM NaOBr. In general, in order to achieve acceleration of anti-proliferative effect on hyper-proliferating cells without causing damage on proliferation of normal cells the concentration of NBrT in solution is 1:5 the concentration of estimated Taurine and the addition of NaOBr solution at latter stages of treatment is 1:100 the concentration of NBrT and 1:500 the concentration of Taurine.
Following, a more detailed description of the enhancement of the anti-proliferative effect obtained with the methodology of this invention, having the aqueous solutions of NBrT/taurine, is given. Stock solution of 4 mM NBrT/20 mM taurine was diluted in final concentrations of 62.5, 125, 250 μM NBrT and 312.5, 625, 1250 μM taurine, respectively, in culture medium DMEM/10% FBS.
(§2) During cell cultivation NaOBr solutions of 62.5 mM, 125 mM and 250 mM were added in 1:100 dilution to the corresponded 62.5, 125, and 250 μM NBrT and 312.5, 625, 1250 μM taurine every 24/48/72 hours. The calculation of the increase of anti-proliferative activity in cancer cells with the methodology of this invention was made in comparison to the rate of anti-proliferative effect that solutions of NBrT exert in final concentrations of 62.5, 125 and 250 μM in the same cultivation medium. The effect of NBrT/taurine solutions with latter addition of NaOBr, namely the solutions of this present invention were compared with effect obtained by NBrT solutions without a surplus of Taurine and without latter addition of NaOBr using the same cell lines in the same experiment. […] The anti-proliferative effect on all cell cultures was measured as a means of cellular viability by Optical Density at 595 nm using a Tecan reader using a crystal violet reagent. All experiments were performed in triplicate and mean values were used.

[3] = test system: (Normal fibroblast - control); assay: Proliferation assay (cellular viability, crystal violet, OD 595 nm), normal fibroblast control; assay type: cell-based; settings: human
From the text: (§3) Following, a more detailed description of the enhancement of the anti-proliferative effect obtained with the methodology of this invention, having the aqueous solutions of NBrT/taurine, is given. […]
as §2, with “The” for “During cell cultivation NaOBr solutions of 62.5 mM, 125 mM and 250 mM were added in 1:100 dilution to the corresponded 62.5, 125, and 250 μM NBrT and 312.5, 625, 1250 μM taurine every 24/48/72 hours. The”, “of anti-proliferative effect that solutions of NBrT exert in final concentrations of 62.5, 125 and 250 μM in the same cultivation medium.” left out

[4] = test system: HLF-1 (Normal fibroblast - control); assay: as above; assay type: cell-based; settings: NBrT concentration range of 12.5-40 μM; surplus of taurine, later addition of NaOBr at 24, 48 and 72 hours
From the text: as §3
as §2, with “The” for “During cell cultivation NaOBr solutions of 62.5 mM, 125 mM and 250 mM were added in 1:100 dilution to the corresponded 62.5, 125, and 250 μM NBrT and 312.5, 625, 1250 μM taurine every 24/48/72 hours. The”, “of anti-proliferative effect that solutions of NBrT exert in final concentrations of 62.5, 125 and 250 μM in the same cultivation medium.” left out

[5] = test system: fibroblast-like synoviocytes; settings: fibroblast-like synoviocytes that participate in rheumatoid arthritis; cited from earlier work
[6] = test system: skin of patients with acne vulgaris; settings: NBrT up to 5 mM applied onto the skin of patients; cited from earlier work
[7] = test system: Prostaglandin E2 production; settings: via Heme Oxygenase; cited from earlier work
purulent leg ulcers = settings: cited from earlier work
all cells tested = assay: Proliferation rate of cells in medium containing NaOBr alone; assay type: cell-based
Procedure: as §1, with “Taurine. […]” for “Taurine.”

O=S(=O)(O)CCNBr [NBrT, N-bromotaurine]
decrease of anti-proliferative effect in comparison with the same but fresh solution [1]: 30-40% | anti-proliferative effect on all hyper-proliferating cell lines tested ([2]; surplus of taurine and later addition of NaOBr at 24, 48 and 72 hours): accelerating anti-proliferative effect | NBrT concentration at which normally proliferating cell lines show an evident decrease in their proliferative ability [3]: above 250 μM | effect on normally proliferating fibroblast cell line HFL-1 [4]: literally no effect | IL6 and inflammatory mediators (PEG2) [5]: inhibit | side effects on skin [6]: literally no side effect | Prostaglandin E2 production (eicosanoid PGE2) [7]: inhibition of Prostaglandin E2 production

O=S(=O)(O)CCNCl [NCT, N-Chlorotaurine]
tolerability and toxicity (purulent leg ulcers; applied locally onto patient's wounds): increased tolerability, low toxicity | efficacy against purulent leg ulcers (purulent leg ulcers; phase II clinical study): significant results against purulent leg ulcers

[Na+].[O-]Br [NaOBr]
proliferation rate of all cells tested (all cells tested; medium containing 0.4-4 μM NaOBr): not affected | proliferation rate of all cells tested (all cells tested; medium containing 0.4-40 μM NaOBr): not affected | enhancement of anti-proliferative effect against cancer cells as single parameter in NBrT solutions [2]: do not exert any enhancement; also recorded: do not confer enhancement

NCCS(=O)(=O)O [Taurine]
enhancement of anti-proliferative effect against cancer cells as single parameter in NBrT solutions [2]: do not exert any enhancement | enhancement of anti-proliferative effect against cancer cells as single parameter in NBrT solutions ([2]; listed as taurine): do not confer enhancement

Source: patent US10772855B2, “N-bromotaurine solutions and emulsions against abnormal cells” (NASCO AD BIOTECHNOLOGY LABORATORY, priority 2016, dated 2020)
